Here are results for one compound from PMC9481570, “A small molecule antagonist of SMN disrupts the interaction between SMN and RNAP II” (Nature Communications, 2022).

This test deals with T1, SMN (Homo sapiens, UniProt Q16637).
T1 construct: endogenous in cells; host or cells: U2OS
Kind of test: AP-MS chemical proteomics, SMN. Format: binding. How it is done:
The samples for AP-MS were prepared following pulldown procedure as previously described with minor modifications. Briefly, U2OS cells were lysed in RIPA buffer and the cell lysate was equally divided into two groups: (1) DMSO group (control group): the cell lysate was incubated with 20 μM biotin-labeled compound 1; (2) Cpmd 1 group (sample group): the cell lysate was incubated with 20 μM biotin-labeled compound 1 and 200 μM free compound 1. Each group contains three biological replicates. They were incubated overnight at 4 °C, then 30 μL streptavidin beads (Thermo Fisher, 20353) was added and incubated at 4 °C for 1 h. The beads were then washed with RIPA buffer for 3 times, 10 min/time.
Beads were rinsed twice with 50 mM TEAB, pH 7.55, before eluting proteins with 25 μL of 5% SDS, 50 mM TEAB, pH 7.55. The sample was then centrifuged at 17,000 × g for 10 min to remove any debris. Proteins were reduced with 20 mM TCEP (Thermo Fisher, 77720) and incubated at 65 °C for 30 min. […]
Samples were analyzed by nanoLC-MS/MS (nanoRSLC, Thermo Fisher) using an Aurora series (Ion Opticks) reversed phase HPLC column (25 cm length × 75 µm inner diameter) and directly injected to an Orbitrap Eclipse (Thermo Fisher) using a 120 min gradient (mobile phase A = 0.1% formic acid, mobile phase B = 99.9% acetonitrile with 0.1% formic acid; hold 2% B for 5 min, 2–6% B in 0.1 min, 6–25% in 100 min, 25–50% in 15 min) at a flow rate of 350 nL/min. Eluted peptide ions were analyzed using a data-dependent acquisition (DDA) method with resolution settings of 120,000 and 15,000 (at m/z 200) for MS1 and MS2 scans, respectively. […]
The data of AP-MS were analyzed as a previously described method with minor modifications. […] Relative protein quantification was based on the label-free quantification incorporated in the MaxQuant software. […] The missing iBAQ intensity was replaced by a random number, which was calculated from a normal distribution with a width of 0.3 and a downshift of 1.8 defined by Perseus software (version 1.6.5.0). The P-value was calculated by performing two-sample Student’s t-test. […]

Values joined by “and” are separate entries in the source; they are usually repeats but may differ in a detail not shown here. Equal values may be shown once.

T1 sequence (Q16637 whole entry): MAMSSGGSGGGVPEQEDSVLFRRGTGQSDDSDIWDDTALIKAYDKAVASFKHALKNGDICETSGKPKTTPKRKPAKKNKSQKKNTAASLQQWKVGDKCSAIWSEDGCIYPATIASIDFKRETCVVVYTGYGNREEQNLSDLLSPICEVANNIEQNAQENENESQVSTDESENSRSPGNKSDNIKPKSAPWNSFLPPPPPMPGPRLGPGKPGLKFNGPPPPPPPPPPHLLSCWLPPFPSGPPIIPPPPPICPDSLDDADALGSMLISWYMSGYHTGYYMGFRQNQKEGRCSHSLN

With `Cn1c2c(c(=N)c3c1CCC3)CCC2` [Compound 1, 4-methyl-2,3,4,5,6,7-hexahydrodicyclopenta[b,e]pyridin-8(1H)-imine], the Difference (GN=SMN1/SMN2 (Q16637), Cmpd minus DMSO, -LOG(P-value) 4.49648) was -8.914. Further, the “iBAQ Cmpd” value (GN=SMN1/SMN2 (Q16637), replicates 1-3) is 15.271 and 13.8686 and 14.4098. Further, the “log2 FC (Cmpd 1/DMSO), SMN” value (biotin-Cmpd 1 pulldown, competition with 200 μM compound 1 relative to DMSO, U2OS lysate) was −8.9.
